Tested on: ICI myocarditis
Assay: Longitudinal follow-up of one ICI myocarditis patient (MCE1) treated with glucocorticoids: cardiac biomarker troponin I
Format: in vivo, human
Conditions: one patient with MRI-confirmed ICI myocarditis; 60 mg/day from first day of diagnosis, four-week steroid taper
Experimental: In order to evaluate the time evolution of clonally-expanded T-cells in ICI myocarditis, we longitudinally analyzed PBMCs from one patient with MRI-confirmed myocarditis at early (t=0 days) and late (t=65 days) timepoints (FIG. 5A). This patient received glucocorticoids (60 mg/day of prednisone) for treatment of their myocarditis on the first day of their diagnosis (after blood collection) and underwent a successful four-week steroid taper with resolution of their cardiac biomarkers (troponin I, measured in ng/ml) by day 25. […] Due to the availability of early and late myocarditis blood samples, our study also provides new insight into the time-course of cellular and molecular changes that occur throughout the onset and resolution of ICI myocarditis. ICI myocarditis has a notoriously unpredictable time course and can occur with a median onset of 17-34 days after initiation of ICI therapy, although cases have been identified anywhere from 1 to 240 days from start of therapy (34,38-40). In our patient, we were able to collect blood at the time of diagnosis of the positive troponin I of 10 ng/ml (t=0) and track to day 65 after a full four-week course of glucocorticoids and resolution of clinical signs of myocarditis. […]

Question: How did the “resolution of cardiac biomarkers (troponin I)” value turn out when `C[C@]12C=CC(=O)C=C1CC[C@@H]1[C@@H]2C(=O)C[C@@]2(C)[C@H]1CC[C@]2(O)C(=O)CO` [prednisone] was run?
Answer: Its value is no more than 25 days.

Source: US20250026848A1, “IDENTIFICATION OF PATHOGENIC IMMUNE CELL SUBSETS IN CHECKPOINT INHIBITOR-INDUCED MYOCARDITIS” (U.S. GOVERNMENT AS REPRESENTED BY THE DEPARTMENT OF …, priority 2021, published 2025)
